For one test, the target named is T1, SOS1 protein (Homo sapiens, UniProt Q07889).
T1 sequence (Q07889 1-1333): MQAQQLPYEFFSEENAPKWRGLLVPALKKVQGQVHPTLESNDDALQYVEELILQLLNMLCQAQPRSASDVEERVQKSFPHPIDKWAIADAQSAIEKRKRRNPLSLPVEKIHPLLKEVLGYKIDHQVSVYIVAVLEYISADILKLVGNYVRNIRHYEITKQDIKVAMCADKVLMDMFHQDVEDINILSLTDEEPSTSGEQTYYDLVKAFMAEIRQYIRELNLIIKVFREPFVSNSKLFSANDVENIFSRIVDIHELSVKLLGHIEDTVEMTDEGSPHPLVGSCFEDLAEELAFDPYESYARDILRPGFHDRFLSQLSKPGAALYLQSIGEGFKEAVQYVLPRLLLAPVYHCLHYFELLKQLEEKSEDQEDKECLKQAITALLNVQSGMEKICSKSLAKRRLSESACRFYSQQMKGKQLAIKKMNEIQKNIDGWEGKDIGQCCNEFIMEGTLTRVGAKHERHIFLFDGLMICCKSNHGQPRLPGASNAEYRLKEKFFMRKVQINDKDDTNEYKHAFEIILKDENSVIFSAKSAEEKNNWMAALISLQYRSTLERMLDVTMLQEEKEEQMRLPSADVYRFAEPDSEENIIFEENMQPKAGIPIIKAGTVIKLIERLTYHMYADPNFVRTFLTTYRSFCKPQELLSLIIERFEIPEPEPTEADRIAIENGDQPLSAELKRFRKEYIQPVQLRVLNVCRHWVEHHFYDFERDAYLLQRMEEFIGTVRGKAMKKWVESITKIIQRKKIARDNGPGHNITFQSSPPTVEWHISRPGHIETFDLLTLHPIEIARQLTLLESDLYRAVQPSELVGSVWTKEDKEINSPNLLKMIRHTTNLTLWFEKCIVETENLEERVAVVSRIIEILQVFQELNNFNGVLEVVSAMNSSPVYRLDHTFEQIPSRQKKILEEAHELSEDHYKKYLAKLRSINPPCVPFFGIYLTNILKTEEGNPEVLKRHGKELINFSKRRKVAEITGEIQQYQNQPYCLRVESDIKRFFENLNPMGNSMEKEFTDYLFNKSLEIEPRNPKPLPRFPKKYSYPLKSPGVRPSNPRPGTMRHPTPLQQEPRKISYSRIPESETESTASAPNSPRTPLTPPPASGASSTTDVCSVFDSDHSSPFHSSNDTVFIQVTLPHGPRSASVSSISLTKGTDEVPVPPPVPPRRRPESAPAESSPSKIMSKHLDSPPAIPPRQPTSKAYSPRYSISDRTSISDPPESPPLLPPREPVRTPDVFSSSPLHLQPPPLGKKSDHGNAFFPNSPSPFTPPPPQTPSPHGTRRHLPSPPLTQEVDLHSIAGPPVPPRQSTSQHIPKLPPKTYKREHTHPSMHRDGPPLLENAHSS
The test can be described thus: SOS1 degradation assay (Western blot), NCI-H358 cells. It is filed as cell-based. Details: The degradation of SOS1 by the compounds was investigated on KRAS G12C mutant human non-small cell lung cancer cells NCI-H358; host or cells: NCI-H358 (human cancer cell lines). The settings on record: SOS1 degradation, NCI-H358 cells, 24 h, Western blot; for DC50: read-out: NCI-H358 (G12C) DC50; for Dmax: read-out: NCI-H358 (G12C) Dmax. The gist of the method:
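SOS1 degradation was assessed by densitometry of Western blots, relative to untreated controls, after 24 h compound exposure (0.03–3000 nM final, 37 °C, 5% CO2) of cells seeded at 5×10^5/well. Log concentration–response fitting gave DC50 and Dmax.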

For the next test, the target named is T2, KRAS-G12C/SOS1 (Homo sapiens, UniProt Q07889).
T2 construct: purchased Cisbio 63ADKOOOCB16PEG
T2 sequence (Q07889 1-1333): T1 sequence (Q07889 1-1333)
Kind of test: KRAS-G12C/SOS1 binding assay (HTRF). The settings on record: inhibition of KRAS-G12C/SOS1 binding. As for the experimental part:
The following method was used to determine the extent of inhibition of KRAS-G12C/SOS1 binding by the preferred compounds of the present invention under in vitro conditions. In this method, the competitive inhibition of KRAS-G12C/SOS1 binding by the preferred compounds was assayed by the homogeneous time-resolved fluorescence (HTRF) technology using the KRAS-G12C/SOS1 binding assay kit (Cisbio, 63ADKOOOCB16PEG).
The experimental procedures were as follows (refer to the kit instructions for details): the compounds of the present invention were each firstly dissolved in DMSO at a concentration of 20 mM, and then diluted in an equal gradient with a buffer in the kit, so that the final concentrations of the test compounds in the reaction system were in a range of 10000 nM-0.04 nM, and the final concentration of DMSO was 0.5%. 2 μL of the compounds were each incubated with 4 μL of 1×Tag1-SOS1, 4 μL of 1×Tag2-KRAS-G12C (containing 10 μM guanosine triphosphate, GTP) at 25° C. for 15 min. Then 5 μL of 1× Anti-Tag1-Tb3+ and 5 μL of 1× Anti-Tag2-XL665 were added to the reaction system, and the mixture was incubated on ice for 3 h. After the incubation, the fluorescence intensity of each well was measured at the excitation wavelength of 337 nm, the fluorescence intensity of each well was read at the emission wavelengths of 620 nm and 665 nm on a microplate reader EnVision (PerkinElmer, 2105) in an HTRF mode, and the Ratio value was calculated by the formula Ratio=(665 nm/620 nm)×[…]. The inhibition rates of the compounds at each concentration were calculated by comparing the fluorescence intensity ratio with that of the control group, and then nonlinear curve fitting was performed by GraphPad Prism 8 in the logarithmic concentration-inhibition rate to obtain the IC50 values of the compounds, as shown in Table 1.
A general note: In TR-FRET formats the signal depends on donor and acceptor labels being close together.

Bounds are passed on as bounds.

One may read the DC50 as the concentration at which degradation of the target reaches its halfway point. The Dmax is the largest share of the target that was removed. Usually IC50 stands for the concentration at which inhibition is half-maximal. Take `COc1cc2nc(C)nc(N[C@H](C)c3cc(-c4c(Cl)cccc4CN(C)C)cs3)c2cc1[C@H]1CC[C@H](C(=O)N2CCN(CCC3CCC4(CC3)CCN(C(=O)c3ccc(Cl)c(N5CCC(=O)NC5=O)c3)CC4)CC2)CC1` [Example 62, 1-(2-chloro-5-(9-(2-(4-((1R,4R)-4-(4-(((R)-1-(4-(2-chloro-6-((dimethylamino)methyl)phenyl)thien-2-yl)ethyl)amino)-7-methoxy-2-methylquinazolin-6-yl)cyclohexane-1-carbonyl)piperazin-1-yl)ethyl)-3-azaspiro[5.5]undecane-3-carbonyl)phenyl)dihydropyrimidine-2,4(1H,3H)-dione]: on SOS1 protein, the DC50 was under 50 nM and the greatest degradation seen (Dmax) fell in the range of 80 to 100%. At KRAS-G12C/SOS1, this compound displayed an IC50 of at most 15 nM.
For `COc1cc2nc(C)nc(N[C@H](C)c3cc(N)cc(C(F)(F)F)c3)c2cc1[C@H]1CC[C@H](C(=O)N2CCN(CCN3CCC4(CC3)CCN(C(=O)c3ccc(Cl)c(N5CCC(=O)NC5=O)c3)CC4)CC2)CC1` [Example 3, 1-(5-(9-(2-(4-((1R,4R)-4-(4-(((R)-1-(3-amino-5-(trifluoromethyl)phenyl)ethyl)amino)-7-methoxy-2-methylquinazolin-6-yl)cyclohexane-1-carbonyl)piperazin-1-yl)ethyl)-3,9-diazaspiro[5.5]undecane-3-carbonyl)-2-chlorophenyl)dihydropyrimidine-2,4(1H,3H)-dione], in that order: under 50 nM, 80 to 100% and at most 15 nM.
Taken in the same sequence, the figures for `COc1cc2nc(C)nc(N[C@H](C)c3cc(-c4c(Cl)cccc4CN(C)C)cs3)c2cc1[C@H]1CC[C@H](C(=O)N2CCN(CC3CCC4(CC3)CCN(C(=O)c3ccc(F)c(N5CCC(=O)NC5=O)c3)CC4)CC2)CC1` [Example 60, 1-(5-(9-((4-((1R,4R)-4-(4-(((R)-1-(4-(2-chloro-6-((dimethylamino)methyl)phenyl)thien-2-yl)ethyl)amino)-7-methoxy-2-methylquinazolin-6-yl)cyclohexane-1-carbonyl)piperazin-1-yl)methyl)-3-azaspiro[5.5]undecane-3-carbonyl)-2-fluorophenyl)dihydropyrimidine-2,4(1H,3H)-dione] were under 50 nM, 50 to 80% and at most 15 nM.
Taken in the same sequence, the figures for `COc1cc2nc(C)nc(N[C@H](C)c3cc(-c4c(Cl)cccc4CN(C)C)cs3)c2cc1[C@H]1CC[C@H](C(=O)N2CCN(CCCOC3CCN(C(=O)c4ccc(Cl)c(N5CCC(=O)NC5=O)c4)CC3)CC2)CC1` [Example 68, 1-(2-chloro-5-(4-(3-(4-((1R,4R)-4-(4-(((R)-1-(4-(2-chloro-6-((dimethylamino)methyl)phenyl)thien-2-yl)ethyl)amino)-7-methoxy-2-methylquinazolin-6-yl)cyclohexane-1-carbonyl)piperazin-1-yl)propoxy)piperidine-1-carbonyl)phenyl)dihydropyrimidine-2,4(1H,3H)-dione] were under 50 nM, 50 to 80% and at most 15 nM.
On to `COc1cc2nc(C)nc(N[C@H](C)c3cc(-c4c(Cl)cccc4CN(C)C)cs3)c2cc1[C@H]1CC[C@H](C(=O)N2CCN(CC3CCC4(CC3)CCN(C(=O)c3ccc(C5CCC(=O)NC5=O)cc3)CC4)CC2)CC1` (stereo partly drawn) [Example 52, 3-(4-(9-((4-((1R,4R)-4-(4-(((R)-1-(4-(2-chloro-6-((dimethylamino)methyl)phenyl)thien-2-yl)ethyl)amino)-7-methoxy-2-methylquinazolin-6-yl)cyclohexane-1-carbonyl)piperazin-1-yl)methyl)-3-azaspiro[5.5]undecane-3-carbonyl)phenyl)piperidine-2,6-dione], for which, on SOS1 protein, the DC50 lay in the range of 100 to 500 nM and the Dmax was in the range of 50 to 80%. The same compound yielded an IC50 on KRAS-G12C/SOS1 of at most 15 nM.
Turning to `CNCc1ccccc1-c1csc([C@@H](C)Nc2nc(C)nc3cc(OC)c([C@H]4CC[C@H](C(=O)N(C)CCCC5CCC6(CC5)CCN(C(=O)c5ccc(Cl)c(N7CCC(=O)NC7=O)c5)CC6)CC4)cc23)c1` [Example 49, (1R,4R)—N-(3-(3-(4-chloro-3-(2,4-dioxotetrahydropyrimidin-1(2H)-yl)benzoyl)-3-azaspiro[5.5]undecan-9-yl)propyl)-4-(7-methoxy-2-methyl-4-(((R)-1-(4-(2-((methylamino)methyl)phenyl)thien-2-yl)ethyl)amino)quinazolin-6-yl)-N-methylcyclohexane-1-carboxamide], at SOS1 protein, the DC50 is 100 to 500 nM and the Dmax lay within 50 to 80%. At KRAS-G12C/SOS1, the half-inhibitory concentration (IC50) was at most 15 nM.
Consider `COc1cc2nc(C)nc(N[C@H](C)c3cc(-c4c(Cl)cccc4CN(C)C)cs3)c2cc1[C@H]1CC[C@H](C(=O)N2CCC(COCCC3CCN(C(=O)c4ccc(Cl)c(N5CCC(=O)NC5=O)c4)CC3)CC2)CC1` [Example 70, 1-(2-chloro-5-(4-(2-((1-((1R,4R)-4-(4-(((R)-1-(4-(2-chloro-6-((dimethylamino)methyl)phenyl)thien-2-yl)ethyl)amino)-7-methoxy-2-methylquinazolin-6-yl)cyclohexane-1-carbonyl)piperidin-4-yl)methoxy)ethyl)piperidine-1-carbonyl)phenyl)dihydropyrimidine-2,4(1H,3H)-dione], for which, on SOS1 protein, the DC50 was under 50 nM and the Dmax was in the range of 80 to 100%. The compound further displayed an IC50 at KRAS-G12C/SOS1 of at most 15 nM.
Taken in the same sequence, the figures for `COc1cc2nc(C)nc(N[C@H](C)c3cc(-c4c(Cl)cccc4CN(C)C)cs3)c2cc1[C@H]1CC[C@H](C(=O)N2CCC(CCCCN3CCN(C(=O)c4ccc(Cl)c(N5CCC(=O)NC5=O)c4)CC3)CC2)CC1` [Example 56, 1-(2-chloro-5-(4-(4-(1-((1R,4R)-4-(4-(((R)-1-(4-(2-chloro-6-((dimethylamino)methyl)phenyl)thien-2-yl)ethyl)amino)-7-methoxy-2-methylquinazolin-6-yl)cyclohexane-1-carbonyl)piperidin-4-yl)butyl)piperazine-1-carbonyl)phenyl)dihydropyrimidine-2,4(1H,3H)-dione] were under 50 nM, 80 to 100% and at most 15 nM.

The record behind these values is patent US20240261417A1, “SOS1 DEGRADING AGENT AND PREPARATION METHOD THEREFOR AND APPLICATION THEREOF” (SHANGHAI LEADINGTAC PHARMACEUTICAL CO. LTD., priority 2021, published 2024).
